Data on ten molecules can be found in patent US20250230193A1, “CYCLIC COMPOUND HAVING SELECTIVE KRAS INHIBITORY EFFECT ON HRAS AND NRAS” (CHUGAI SEIYAKU KABUSHIKI KAISHA, priority 2022, published 2025).

Test [1] addresses GDP-bound HRAS wild-type protein (Homo sapiens, UniProt P01112). Description: Binding to HRAS by surface plasmon resonance (SPR), Single Cycle Kinetics. The following applies: SPR; KD ratio class. (In general: SPR reads the build-up and loss of mass on a sensor chip optically.)
In test [2] the target is GDP-bound NRAS wild-type protein (Homo sapiens, UniProt P01111). Description: Binding to NRAS by surface plasmon resonance (SPR), Single Cycle Kinetics. The note with it: SPR; KD ratio class.
GDP-bound NRAS wild-type protein, sequence (P01111 whole entry): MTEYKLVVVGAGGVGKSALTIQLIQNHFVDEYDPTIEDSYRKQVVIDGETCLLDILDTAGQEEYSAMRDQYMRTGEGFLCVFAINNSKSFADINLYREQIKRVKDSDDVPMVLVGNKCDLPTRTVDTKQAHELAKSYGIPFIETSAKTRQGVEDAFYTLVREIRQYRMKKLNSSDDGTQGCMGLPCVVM
The subject of test [3] is human lung cancer strain NCI-H441. Briefly: cells. The following applies: NCI-H441, 96 h, read-out: NCI-H441 IC50 (nM).

Molecules are shown by their SMILES.

GDP-bound HRAS wild-type protein, sequence (P01112 whole entry): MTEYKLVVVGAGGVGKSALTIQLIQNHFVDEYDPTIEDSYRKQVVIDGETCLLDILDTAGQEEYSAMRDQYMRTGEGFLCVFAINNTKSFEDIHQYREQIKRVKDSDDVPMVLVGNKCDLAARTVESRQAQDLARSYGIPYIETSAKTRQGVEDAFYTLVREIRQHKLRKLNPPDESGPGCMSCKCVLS

For the molecule `CCO[C@@H]1C[C@H]2C(=O)NC3(CCCCC3)C(=O)N(C)[C@@H](C3CCCC3)C(=O)N(C)[C@H](C(=O)N(C)C)CC(=O)N(C)[C@@H](CC)C(=O)N[C@@H]([C@@H](C)CC)C(=O)N(C)CC(=O)N(C)[C@H]3C/C=C\CCN(C3=O)[C@@H](Cc3ccc(C(F)(F)F)cc3)C(=O)N(C)CC(=O)N[C@@H](CCc3cc(F)c(C(F)(F)F)c(F)c3)C(=O)N2C1` [PP1277], the “HRAS/KRAS (ratio of KD value for GDP-bound HRAS wild-type protein to KD value for KRAS)” value in test [1] was “A (a compound having 10 or more and less than 20 is denoted as A)”. Further, the “NRAS/KRAS (ratio of KD value for GDP-bound NRAS wild-type protein to KD value for KRAS)” value in test [2] is “A (a compound having 10 or more and less than 20 is denoted as A)”. Further, the IC50 in test [3] stood at 79.8 nM.

`CCO[C@@H]1C[C@H]2C(=O)NC3(CCOCC3)C(=O)N(C)[C@@H](C3CCCC3)C(=O)N(C)[C@H](C(=O)N(C)C)CC(=O)N(C)[C@@H](CC)C(=O)N[C@@H]([C@@H](C)CC)C(=O)N(C)CC(=O)N(C)[C@H]3C/C=C\CCN(C3=O)[C@@H](Cc3ccc(C(F)(F)F)cc3)C(=O)N(C)CC(=O)N[C@@H](CCc3cc(F)c(C(F)(F)F)c(F)c3)C(=O)N2C1` [PP1279]: in test [1], the “HRAS/KRAS (ratio of KD value for GDP-bound HRAS wild-type protein to KD value for KRAS)” value was “A (a compound having 10 or more and less than 20 is denoted as A)”. In addition, the “NRAS/KRAS (ratio of KD value for GDP-bound NRAS wild-type protein to KD value for KRAS)” value in test [2] was “A (a compound having 10 or more and less than 20 is denoted as A)”. Moreover, in test [3], the concentration for half-maximal inhibition (IC50) was 72.6 nM.

With `CCO[C@@H]1C[C@H]2C(=O)NC(C)(C)C(=O)N(C)[C@@H](C3CCCC3)C(=O)N(C)[C@H](C(=O)N(C)C)CC(=O)N(C)[C@@H](CC)C(=O)N[C@@H]([C@@H](C)CC)C(=O)N(C)CC(=O)N(C)[C@H]3C/C=C\CCN(C3=O)[C@@H](Cc3ccc(C(F)(F)F)cc3)C(=O)N(C)CC(=O)N[C@@H](CCc3cc(F)c(C(F)(F)F)c(F)c3)C(=O)N2C1` [PP1280], the “HRAS/KRAS (ratio of KD value for GDP-bound HRAS wild-type protein to KD value for KRAS)” value in test [1] is “A (a compound having 10 or more and less than 20 is denoted as A)”. Moreover, in test [2], the “NRAS/KRAS (ratio of KD value for GDP-bound NRAS wild-type protein to KD value for KRAS)” value is “A (a compound having 10 or more and less than 20 is denoted as A)”. In addition, the IC50 in test [3] turned out to be 34.4 nM.

For the molecule `CCO[C@@H]1C[C@H]2C(=O)NC3(CCC3)C(=O)N(C)[C@@H](C3CCCC3)C(=O)N(C)[C@H](C(=O)N3CCOCC3)CC(=O)N(C)[C@@H](CC(C)C)C(=O)N[C@@H]([C@@H](C)CC)C(=O)N(C)CC(=O)N(C)[C@H]3C/C=C\CCN(C3=O)[C@@H](Cc3ccc(C(F)(F)F)cc3)C(=O)N(C)CC(=O)N[C@@H](CCc3cc(F)c(C(F)(F)F)c(F)c3)C(=O)N2C1` [PP1282], the “HRAS/KRAS (ratio of KD value for GDP-bound HRAS wild-type protein to KD value for KRAS)” value in test [1] was “A (a compound having 10 or more and less than 20 is denoted as A)”. Also, the “NRAS/KRAS (ratio of KD value for GDP-bound NRAS wild-type protein to KD value for KRAS)” value in test [2] is “A (a compound having 10 or more and less than 20 is denoted as A)”. Besides, the 50% inhibitory concentration (IC50) in test [3] came out at 12.3 nM.

For `CCO[C@@H]1C[C@H]2C(=O)NC3(CCC3)C(=O)N(C)[C@@H](C3CCCC3)C(=O)N(C)[C@H](C(=O)N3CCOCC3)CC(=O)N(C)[C@@H](CC3CC3)C(=O)N[C@@H]([C@@H](C)CC)C(=O)N(C)CC(=O)N(C)[C@H]3C/C=C\CCN(C3=O)[C@@H](Cc3ccc(C(F)(F)F)cc3)C(=O)N(C)CC(=O)N[C@@H](CCc3cc(F)c(C(F)(F)F)c(F)c3)C(=O)N2C1` [PP1283], the “HRAS/KRAS (ratio of KD value for GDP-bound HRAS wild-type protein to KD value for KRAS)” value in test [1] is “A (a compound having 10 or more and less than 20 is denoted as A)”. Besides, the “NRAS/KRAS (ratio of KD value for GDP-bound NRAS wild-type protein to KD value for KRAS)” value in test [2] is on record as “AA (a compound having 20 or more is denoted as AA)”. In addition, the IC50 in test [3] stood at 42.6 nM.

Regarding `CCO[C@@H]1C[C@H]2C(=O)NC3(CCC3)C(=O)N(C)[C@@H](C3CCCC3)C(=O)N(C)[C@H](C(=O)N3CCOCC3)CC(=O)N(C)[C@@H](C)C(=O)N[C@@H]([C@@H](C)CC)C(=O)N(C)CC(=O)N(C)[C@H]3C/C=C\CCN(C3=O)[C@@H](Cc3ccc(C(F)(F)F)cc3)C(=O)N(C)CC(=O)N[C@@H](CCc3cc(F)c(C(F)(F)F)c(F)c3)C(=O)N2C1` [PP1284], the “HRAS/KRAS (ratio of KD value for GDP-bound HRAS wild-type protein to KD value for KRAS)” value in test [1] is “A (a compound having 10 or more and less than 20 is denoted as A)”. In test [2], the “NRAS/KRAS (ratio of KD value for GDP-bound NRAS wild-type protein to KD value for KRAS)” value was “AA (a compound having 20 or more is denoted as AA)”. Also, the half-inhibitory concentration (IC50) in test [3] was 54.8 nM.

Regarding `CCO[C@@H]1C[C@H]2C(=O)NC3(CCC3)C(=O)N(C)[C@@H](C3CCCC3)C(=O)N(C)[C@H](C(=O)N3CCOCC3)CC(=O)N(C)[C@@H](CC(F)F)C(=O)N[C@@H]([C@@H](C)CC)C(=O)N(C)CC(=O)N(C)[C@H]3C/C=C\CCN(C3=O)[C@@H](Cc3ccc(C(F)(F)F)cc3)C(=O)N(C)CC(=O)N[C@@H](CCc3cc(F)c(C(F)(F)F)c(F)c3)C(=O)N2C1` [PP1285], in test [1], the “HRAS/KRAS (ratio of KD value for GDP-bound HRAS wild-type protein to KD value for KRAS)” value was “A (a compound having 10 or more and less than 20 is denoted as A)”. For the same molecule, the “NRAS/KRAS (ratio of KD value for GDP-bound NRAS wild-type protein to KD value for KRAS)” value in test [2] was “AA (a compound having 20 or more is denoted as AA)”. Moreover, the IC50 in test [3] came to 24.6 nM.

In the case of `CCO[C@@H]1C[C@H]2C(=O)NC3(CCC3)C(=O)N(C)[C@@H](C(CC)CC)C(=O)N(C)[C@H](C(=O)N3CCOCC3)CC(=O)N(C)[C@@H](CC)C(=O)N[C@@H]([C@@H](C)CC)C(=O)N(C)CC(=O)N(C)[C@H]3C/C=C\CCN(C3=O)[C@@H](Cc3ccc(C(F)(F)F)cc3)C(=O)N(C)CC(=O)N[C@@H](CCc3cc(F)c(C(F)(F)F)c(F)c3)C(=O)N2C1` [PP1286], in test [1], the “HRAS/KRAS (ratio of KD value for GDP-bound HRAS wild-type protein to KD value for KRAS)” value is “A (a compound having 10 or more and less than 20 is denoted as A)”. For the same molecule, the “NRAS/KRAS (ratio of KD value for GDP-bound NRAS wild-type protein to KD value for KRAS)” value in test [2] is “AA (a compound having 20 or more is denoted as AA)”. In test [3], the IC50 was found to be 58.8 nM.

As for `CCO[C@@H]1C[C@H]2C(=O)NC3(CCC3)C(=O)N(C)[C@@H](C(CC)CC)C(=O)N(C)[C@H](C(=O)N3CCOCC3)CC(=O)N(C)[C@@H](CC(C)C)C(=O)N[C@@H]([C@@H](C)CC)C(=O)N(C)CC(=O)N(C)[C@H]3C/C=C\CCN(C3=O)[C@@H](Cc3ccc(C(F)(F)F)cc3)C(=O)N(C)CC(=O)N[C@@H](CCc3cc(F)c(C(F)(F)F)c(F)c3)C(=O)N2C1` [PP1287], the “HRAS/KRAS (ratio of KD value for GDP-bound HRAS wild-type protein to KD value for KRAS)” value in test [1] is “A (a compound having 10 or more and less than 20 is denoted as A)”. Besides, the “NRAS/KRAS (ratio of KD value for GDP-bound NRAS wild-type protein to KD value for KRAS)” value in test [2] is “AA (a compound having 20 or more is denoted as AA)”. Further, the IC50 in test [3] stood at 49.7 nM.

Take `CCC[C@H]1C(=O)N[C@@H]([C@@H](C)CC)C(=O)N(C)CC(=O)N(C)[C@H]2C/C=C\CCN(C2=O)[C@@H](Cc2ccc(C(F)(F)F)cc2)C(=O)N(C)CC(=O)N[C@@H](CCc2cc(F)c(C(F)(F)F)c(F)c2)C(=O)N2C[C@H](OCC)C[C@H]2C(=O)NC2(CCC2)C(=O)N(C)[C@@H](C2CCCC2)C(=O)N(C)[C@H](C(=O)N2CCOCC2)CC(=O)N1C` [PP1288]: the “HRAS/KRAS (ratio of KD value for GDP-bound HRAS wild-type protein to KD value for KRAS)” value in test [1] is “A (a compound having 10 or more and less than 20 is denoted as A)”. The “NRAS/KRAS (ratio of KD value for GDP-bound NRAS wild-type protein to KD value for KRAS)” value in test [2] is listed as “AA (a compound having 20 or more is denoted as AA)”. Moreover, the IC50 in test [3] was 22.2 nM.

The term IC50 denotes the concentration needed to halve the response being measured.
